Numbers after ± are expanded uncertainties.
Assay: activity coefficient (dimensionless); of the first substance listed, at infinite dilution; xn = mol fraction of the nth substance listed
Conditions: 101 kPa, Liquid, Chromatography, x1 = 0

Row | SMILES | activity coefficient (312.8 K) | activity coefficient (332.85 K) | activity coefficient (354.65 K) | activity coefficient (322.55 K) | activity coefficient (342.75 K) | activity coefficient (362.65 K) | other results
1 | CCN(CC)CC [triethylamine] + CCCCCC[n+]1ccn(C)c1.FC(F)(F)C(F)(F)[P-](F)(F)(F)(C(F)(F)C(F)(F)F)C(F)(F)C(F)(F)F | 2.09 ± 0.14 | 1.96 ± 0.13 | 1.76 ± 0.12 |  |  |  | 
2 | CCN(CC)CC [triethylamine] + CCCCn1cc[n+](C)c1.O=S(=O)([N-]S(=O)(=O)C(F)(F)C(F)(F)F)C(F)(F)C(F)(F)F |  |  |  | 2.73 ± 0.19 | 3.61 ± 0.25 | 3.27 ± 0.22 | 
3 | CCN(CC)CC [triethylamine] + CCn1cc[n+](C)c1.CS(=O)(=O)[O-] |  |  |  |  |  |  | activity coefficient (312.55 K): 8.32 ± 0.57; activity coefficient (322.45 K): 14.3 ± 0.98; activity coefficient (332.45 K): 18.8 ± 1.3
4 | CCCCCCCCCCC [undecane] + CCCCCC[n+]1ccn(C)c1.FC(F)(F)C(F)(F)[P-](F)(F)(F)(C(F)(F)C(F)(F)F)C(F)(F)C(F)(F)F | 31 ± 2.1 | 25.5 ± 1.7 | 19.9 ± 1.4 |  |  |  | 
5 | CCCCCCCCCCC [undecane] + CCCCn1cc[n+](C)c1.O=S(=O)([N-]S(=O)(=O)C(F)(F)C(F)(F)F)C(F)(F)C(F)(F)F |  |  |  | 57.3 ± 3.9 | 45.9 ± 3.1 | 37.8 ± 2.6 | 

Source: the NIST ThermoML archive (doi:10.1021/je200195q)
